Laboratory results: US9169260B2 (MERCK SHARP & DOHME CORP., priority 2011, dated 2015)
pIC50: −log10 of the molar value.

Target: GST tagged IRAK-4 (Homo sapiens (Human), UniProt Q9NWZ3)
Assay: IRAK-4 Kinase Assay (IMAP fluorescence polarization)
Format: biochemical
Settings: 100 μM ATP, 30 minutes at 25° C.; for IC50: μM
How it was run: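 Activity was read by IMAP fluorescence polarization, where phosphopeptide binding to M(III) nanoparticles raises FP. The 30-minute, 25° C reaction used 100 μM ATP, 100 nM RP7030 substrate and 0.5 nM GST-IRAK-4 in pH 7.2 Tris buffer with MgCl2, DTT and Tween 20.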

Sequence of GST tagged IRAK-4 (Q9NWZ3 whole entry): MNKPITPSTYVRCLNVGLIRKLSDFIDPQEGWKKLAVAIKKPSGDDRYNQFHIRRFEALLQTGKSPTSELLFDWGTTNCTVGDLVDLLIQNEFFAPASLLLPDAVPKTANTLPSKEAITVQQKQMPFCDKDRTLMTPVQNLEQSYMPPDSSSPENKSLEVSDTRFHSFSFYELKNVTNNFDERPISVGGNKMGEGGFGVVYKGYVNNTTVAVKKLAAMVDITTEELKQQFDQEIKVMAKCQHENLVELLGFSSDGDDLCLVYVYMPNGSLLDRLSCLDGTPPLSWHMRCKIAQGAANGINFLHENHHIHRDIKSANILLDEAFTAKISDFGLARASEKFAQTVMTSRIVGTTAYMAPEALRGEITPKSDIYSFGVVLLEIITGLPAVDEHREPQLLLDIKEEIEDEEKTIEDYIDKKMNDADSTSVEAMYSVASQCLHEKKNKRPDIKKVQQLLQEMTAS

| SMILES | IC50 [µM] | pIC50 |
| --- | --- | --- |
| NC(=O)c1ccc(-n2nc(C3CCNCC3)cc2NC(=O)c2cnn3cccnc23)nc1 [Example 160, N-(1-(5-carbamoylpyridin-2-yl)-3-(piperidin-4-yl)-1H-pyrazol-5-yl)pyrazolo[1,5-a]pyrimidine-3-carboxamide] | < 1 |  |
| Cc1ccc(-n2nc(C3CCN(S(=O)(=O)c4cccc(F)c4)CC3)cc2NC(=O)c2cnn3cccnc23)cc1 [Example 379, N-[3-{1-[(3-fluorophenyl)sulfonyl]piperidin-4-yl}-1-(4-methylphenyl)-1H-pyrazol-5-yl]pyrazolo[1,5-a]pyrimidine-3-carboxamide] | < 1 |  |
| Cc1ccc(-n2nc(C3CCN(C4CCN(C)CC4)CC3)cc2NC(=O)c2cnn3cccnc23)cc1 [Example 205] | > 1 |  |
| Cc1ccc(-n2nc(C3CCN(CC4CC4)CC3)cc2NC(=O)c2cnn3cccnc23)cc1 [Example 221, N-{3-[1-(cyclopropylmethyl)piperidin-4-yl]-1-(4-methylphenyl)-1H-pyrazol-5-yl}pyrazolo[1,5-a]pyrimidine-3-carboxamide] |  | > 7.00 |
| Cc1ccc(-n2nc(C3CCN(S(=O)(=O)c4cccc5cccnc45)CC3)cc2NC(=O)c2cnn3cccnc23)cc1 [Example 396, N-{1-(4-methylphenyl)-3-[1-(quinolin-8-ylsulfonyl)piperidin-4-yl]-1H-pyrazol-5-yl}pyrazolo[1,5-a]pyrimidine-3-carboxamide] | < 1 |  |
| Cc1ccc(-n2nc(C3CCC(C(=O)O)CC3)cc2NC(=O)c2cnn3cccnc23)cc1 (stereo not drawn) [Example 94, 4-(5-(pyrazolo[1,5-a]pyrimidine-3-carboxamido)-1-(p-tolyl)-1H-pyrazol-3-yl)cyclohexanecarboxylic acid] | > 1 |  |
| Cc1ccc(-n2nc(N3CCN(C4CCCC4)CC3)cc2NC(=O)c2cnn3cccnc23)nc1 [Example 323, N-[3-(4-cyclopentylpiperazin-1-yl)-1-(5-methylpyridin-2-yl)-1H-pyrazol-5-yl]pyrazolo[1,5-a]pyrimidine-3-carboxamide] |  | > 7.00 |
| CS(=O)(=O)N1CCC(c2cc(NC(=O)c3cnn4cccnc34)n(-c3ccc(Br)cc3F)n2)CC1 [Example 71, N-(1-(4-bromo-2-fluorophenyl)-3-(1-(methylsulfonyl)piperidin-4-yl)-1H-pyrazol-5-yl)pyrazolo[1,5-a]pyrimidine-3-carboxamide] | < 1 |  |
| Cc1ccc(-n2nc(C3CCN(C4CC(C#N)C4)CC3)cc2NC(=O)c2cnn3cccnc23)cc1 (stereo not drawn) [Example 258, N-{3-[1-(3-cyanocyclobutyl)piperidin-4-yl]-1-(4-methylphenyl)-1H-pyrazol-5-yl}pyrazolo[1,5-a]pyrimidine-3-carboxamide] |  | > 7.00 |
| COc1ccc(-n2nc(C3CCN(S(=O)(=O)C4CC4)CC3)cc2NC(=O)c2cnn3cccnc23)c(F)c1 [Example 63, N-(3-(1-(cyclopropylsulfonyl)piperidin-4-yl)-1-(2-fluoro-4-methoxyphenyl)-1H-pyrazol-5-yl)pyrazolo[1,5-a]pyrimidine-3-carboxamide] |  | > 7.00 |
| CCCCS(=O)(=O)N1CCC(c2cc(NC(=O)c3cnn4cccnc34)n(-c3ccc(C)cc3)n2)CC1 [Example 369, N-{3-[1-(butylsulfonyl)piperidin-4-yl]-1-(4-methylphenyl)-1H-pyrazol-5-yl}pyrazolo[1,5-a]pyrimidine-3-carboxamide] | < 1 |  |
| O=C(Nc1cc(C2CCNCC2)nn1-c1c(F)cc(C2CC2)cc1F)c1cnn2cccnc12 [Example 77, N-(1-(4-cyclopropyl-2,6-difluorophenyl)-3-(piperidin-4-yl)-1H-pyrazol-5-yl)pyrazolo[1,5-a]pyrimidine-3-carboxamide] |  | > 7.00 |
| Cc1ccc(-n2nc(C3CCCN(Cc4cscn4)C3)cc2NC(=O)c2cnn3cccnc23)cc1 (stereo not drawn) [Example 288, N-{1-(4-methylphenyl)-3-[1-(1,3-thiazol-4-ylmethyl)piperidin-3-yl]-1H-pyrazol-5-yl}pyrazolo[1,5-a]pyrimidine-3-carboxamide] | < 1 |  |
| Cc1cc(F)ccc1-n1nc(C2CCN(C(C)C)CC2)cc1NC(=O)c1cnn2cccnc12 [Example 69, N-(1-(4-fluoro-2-methylphenyl)-3-(1-isopropylpiperidin-4-yl)-1H-pyrazol-5-yl)pyrazolo[1,5-a]pyrimidine-3-carboxamide] | < 1 |  |
| Cc1ccc(-n2nc(C3CCN(C4CCOCC4)CC3)cc2NC(=O)c2cnn3cc(Br)cnc23)cc1 [Example 110, 6-bromo-N-(3-(1-(tetrahydro-2H-pyran-4-yl)piperidin-4-yl)-1-(p-tolyl)-1H-pyrazol-5-yl)pyrazolo[1,5-a]pyrimidine-3-carboxamide] |  | > 7.00 |
| COCCS(=O)(=O)N1CC(c2cc(NC(=O)c3cnn4cccnc34)n(-c3ccc(C)cc3)n2)C1 [Example 86, N-(3-(1-((2-methoxyethyl)sulfonyl)azetidin-3-yl)-1-(p-tolyl)-1H-pyrazol-5-yl)pyrazolo[1,5-a]pyrimidine-3-carboxamide] | < 1 |  |
| Cc1ccc(-n2nc(C3CCN(C(N)=O)CC3)cc2NC(=O)c2cnn3cccnc23)cc1 [Example 35, N-(3-(1-carbamoylpiperidin-4-yl)-1-(p-tolyl)-1H-pyrazol-5-yl)pyrazolo[1,5-a]pyrimidine-3-carboxamide] | < 1 |  |
| COc1ccc(-n2nc(C3CCN(C(C)C)CC3)cc2NC(=O)c2cnn3cccnc23)c(F)c1 [Example 62, N-(1-(2-fluoro-4-methoxyphenyl)-3-(1-isopropylpiperidin-4-yl)-1H-pyrazol-5-yl)pyrazolo[1,5-a]pyrimidine-3-carboxamide] |  | > 7.00 |
| Cc1ccc(-n2nc(C3CCN(C4CCC4)CC3)cc2NC(=O)c2cnn3cccnc23)cc1 [Example 38, N-(3-(1-cyclobutylpiperidin-4-yl)-1-(p-tolyl)-1H-pyrazol-5-yl)pyrazolo[1,5-a]pyrimidine-3-carboxamide] |  | > 7.00 |
| O=C(Nc1cc(C2CCN(S(=O)(=O)C3CC3)CC2)nn1-c1ccc(C2CC2)cc1)c1cnn2cccnc12 [Example 54, N-(1-(4-cyclopropylphenyl)-3-(1-(cyclopropylsulfonyl)piperidin-4-yl)-1H-pyrazol-5-yl)pyrazolo[1,5-a]pyrimidine-3-carboxamide] | < 1 |  |
| Cc1ccc(-n2nc(-c3ccnc(CO)c3)cc2NC(=O)c2cnn3cccnc23)cc1 [Example 329, N-{3-[2-(hydroxymethyl)pyridin-4-yl]-1-(4-methylphenyl)-1H-pyrazol-5-yl}pyrazolo[1,5-a]pyrimidine-3-carboxamide] | < 1 |  |
| Cc1ccc(-n2nc(C3CCN(C4CCCC(C)C4)CC3)cc2NC(=O)c2cnn3cccnc23)nc1 (stereo not drawn) [Example 277, N-{3-[1-(3-methylcyclohexyl)piperidin-4-yl]-1-(5-methylpyridin-2-yl)-1H-pyrazol-5-yl}pyrazolo[1,5-a]pyrimidine-3-carboxamide] |  | > 7.00 |
| COC(=O)C1CCC(c2cc(NC(=O)c3cnn4cccnc34)n(-c3ccc(C)cc3)n2)CC1 (stereo not drawn) [Example 93, methyl 4-(5-(pyrazolo[1,5-a]pyrimidine-3-carboxamido)-1-(p-tolyl)-1H-pyrazol-3-yl)cyclohexanecarboxylate] | > 1 |  |
| Cc1ccc(-n2nc(C3CN(Cc4cncs4)C3)cc2NC(=O)c2cnn3cccnc23)cc1 [Example 312, N-{1-(4-methylphenyl)-3-[1-(1,3-thiazol-5-ylmethyl)azetidin-3-yl]-1H-pyrazol-5-yl}pyrazolo[1,5-a]pyrimidine-3-carboxamide] |  | > 7.00 |
